{
  "source": "paper PMC8003416",
  "about": "“Modulation of Human Phenylalanine Hydroxylase by 3-Hydroxyquinolin-2(1H)-One Derivatives” (Biomolecules, 2021)",
  "key": {"[1]": {"molecular_target": "T1, Factor Xa (FXa) (Bos taurus, UniProt P00743)", "T1 construct": "purchased New England Biolabs", "T1 sequence (P00743 234-492 limits assumed)": "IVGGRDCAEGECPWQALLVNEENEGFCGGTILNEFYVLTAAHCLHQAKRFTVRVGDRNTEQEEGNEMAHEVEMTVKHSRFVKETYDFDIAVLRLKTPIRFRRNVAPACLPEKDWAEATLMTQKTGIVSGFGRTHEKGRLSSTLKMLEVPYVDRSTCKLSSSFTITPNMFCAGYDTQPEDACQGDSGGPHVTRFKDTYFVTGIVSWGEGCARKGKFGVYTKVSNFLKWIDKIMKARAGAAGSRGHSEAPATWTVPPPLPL", "T1 sequence (P00743 41-180 partner limits assumed)": "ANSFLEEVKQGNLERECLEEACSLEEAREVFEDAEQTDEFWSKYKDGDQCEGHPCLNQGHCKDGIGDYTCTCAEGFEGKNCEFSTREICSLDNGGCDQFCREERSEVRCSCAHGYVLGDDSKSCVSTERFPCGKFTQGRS", "assay": "Factor Xa activity control with Boc-Ile-Glu-Gly-Arg-AMC", "format": "biochemical", "conditions": "100 μM compound; for FXa relative (residual) enzyme activity: 1% DMSO control = 100%; for Factor Xa Abs/min: control 597 ± 16", "experimental": "(§1) Self-assembly of the dimeric forms of hPAH-RD^1–120 was followed in real-time at 25 °C upon cleavage of MBP-FXa-hPAH-RD^1–120 with FXa (New England Biolabs) to release the MBP fusion partner. Assays (n = 3) were performed in the absence or presence of tested compounds as described in [17]. Briefly, FXa (at a final ratio 1:150 (w/w) relative to the fusion protein) was added to the reaction mixture containing the MBP-FXa-hPAH-RD^1–120 fusion protein (0.74 mg/mL), 20 mM Na-HEPES, 100 mM NaCl, pH 7.0 and tested 3HQ (100 μM). The increase in absorbance at 350 nm was followed for 180 min on a FLUOstar Omega (BMG Labtech) microplate reader. A shaking step was introduced before each measurement. Appropriate control assays were performed and included: (i) a positive control consisting of MBP-FXa-hPAH-RD^1–120 in the presence of FXa, 1% DMSO and in the absence of compounds; and (ii) a negative control consisting of MBP-FXa-hPAH-RD^1–120 in the absence of FXa and compounds. For all the assays, aliquots of the aggregation reaction were collected at the end of the reaction (180 min) and analyzed by SDS-PAGE to confirm the extent of MBP cleavage by FXa. In addition, the effect of tested compounds on FXa activity was monitored using the synthetic FXa substrate Boc–Ile–Glu-Gly–Arg–AMC (t-(Butyloxycarbonyl)-isoleucylglutamylglycylarginyl-7-amido-4-methylcoumarin; from Bachem). Assays (n = 3) were performed in a 96-well plate, in a final volume of 200 μL containing 20 mM Na-HEPES, 100 mM NaCl, pH 7.0, 5 μg/mL of FXa, 50 μM of Boc–Ile-Glu–Gly–Arg–AMC and 100 μM of 3HQ derivatives. Fluorescence was measured in real-time (λexc 360 nm and λem 460 nm) during 30 min, at 25 °C. Controls were performed using substrate alone with 1% DMSO (negative control) and FXa with no compounds and 1% DMSO (positive control)."}, "[2]": {"tested_on": "HEK-293T cells", "assay": "Propidium iodide exclusion assay (membrane integrity)", "format": "cell-based", "conditions": "100 μM, 24 h; negative control 1.0 ± 0.1", "experimental": "Cytotoxicity of selected 3HQs was assessed in HEK-293T cells using the Alamar Blue assay as a general cell viability endpoint method that monitors the cellular metabolic state, and the propidium iodide (PI) exclusion assay was used to evaluate membrane integrity essentially as described. The 3HQs were tested at a final concentration of 50 and 100 μM (two independent assays; five replicates each). Control assays were performed using 1% DMSO (negative control), or SDS at 1 mg/mL as a positive control of cell death in the PI assay. […] The culture medium was replaced by fresh medium (supplemented as above) containing the different 3HQs to be analyzed. After 24 h incubation, the culture medium was replaced by […] PI (Sigma-Aldrich) in fresh medium (stock solution 1.5 mM in DMSO) and fluorescence was measured (λexc 485 nm, λem 590 nm) in a FLUOstar Omega microplate reader. […] The cells were further incubated for 3 h and fluorescence was measured (λexc 530 nm, λem 590 nm) in a FLUOstar Omega microplate reader (BMG Labtech). The relative PI uptake and cell viability (%) were calculated using Equations (3) and (4), respectively. Relative PI uptake = Fluorescence intensitysample/Fluorescence intensitynegative control(3) Relative cell viability (%) = Fluorescence intensitysample/Fluorescence intensitycontrol × 100(4)"}, "[3]": {"molecular_target": "T2, hPAH-RD^1–120 (N-terminal regulatory domain) (Homo sapiens, UniProt P00439)", "T2 construct": "consisting solely of the N-terminal regulatory domain (amino acids 1–120); made in house; host or cells: E. coli TB1", "T2 sequence (P00439 1-120)": "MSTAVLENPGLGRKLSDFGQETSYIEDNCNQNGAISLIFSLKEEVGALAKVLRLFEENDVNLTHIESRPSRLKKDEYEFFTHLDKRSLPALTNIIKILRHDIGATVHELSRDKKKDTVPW", "assay": "Light scattering assay of hPAH-RD1–120 self-association", "experimental": "as §1"}},
  "data": [
    {"compound": "COC(=O)CC[C@H](NC(=O)c1c(O)c(=O)[nH]c2ccc(OC(F)(F)F)cc12)C(=O)OC", "note": "[Compound 9]", "values": [
      {"measurement": "FXa relative (residual) enzyme activity", "setting": "[1]", "result": 77, "unit": "%"},
      {"measurement": "Factor Xa Abs/min", "setting": "[1]", "result": "465 ± 29", "unit": "Abs/min"},
      {"measurement": "relative PI uptake", "setting": "[2]", "result": "1.0 ± 0.0"}
    ]},
    {"compound": "COC(=O)CNC(=O)c1c(O)c(=O)[nH]c2ccc(OC(F)(F)F)cc12", "note": "[Compound 11]", "values": [
      {"measurement": "FXa relative (residual) enzyme activity", "setting": "[1]", "result": 69, "unit": "%"},
      {"measurement": "Factor Xa Abs/min", "setting": "[1]", "result": "407 ± 8", "unit": "Abs/min"},
      {"measurement": "effect on hPAH-RD^1–120 aggregation", "setting": "[3]; 100 μM, 180 min, 25 °C", "result": "no direct evidence of a direct binding to hPAH-RD^1–120 was obtained"},
      {"measurement": "relative PI uptake", "setting": "[2]", "result": "1.0 ± 0.1"}
    ]},
    {"compound": "N[C@@H](Cc1ccccc1)C(=O)O", "note": "[L-Phe, L-phenylalanine, reference compound]", "values": [
      {"measurement": "effect on hPAH-RD^1–120 aggregation", "setting": "[3]; 100 μM, 180 min, 25 °C", "result": "only slightly prevented hPAH-RD^1–120 aggregation"},
      {"measurement": "effect on hPAH-RD^1–120 aggregation", "setting": "[3]; 1 mM L-Phe", "result": "completely blocked it"}
    ]}
  ]
}
